The conditions of the series: Liquid.

SMILES strings stand for the structures. Numbers after ± are expanded uncertainties.

Broadly, the vapor or sublimation pressure is the equilibrium pressure above the liquid or solid.

Take `Cl` [hydrogen chloride]: the “vapor or sublimation pressure” value is, setting by setting: (159.01 K) 13.79 ± 0.3 kPa; (182.33 K) 72.13 ± 1.2 kPa.

The values above are taken from the NIST ThermoML archive (doi:10.1016/j.jct.2004.05.009).
